This passage reports EC50 results from patent US7517910B2, “Alkoxyphenylpropanoic acid derivatives” (Takeda Pharmaceutical Company Limited, priority 2004, dated 2009).

One may read the EC50 as the concentration giving half of the maximal effect.

The target of this test is T1, human GPR40 (Homo sapiens, UniProt O14842).
T1 construct: expressed in transfected cells; host or cells: CHO cell line stably expressing human GPR40
Briefly: Determination of EC50 against human GPR40: change in intracellular calcium concentration by FLIPR in CHO cells stably expressing human GPR40. The test is classed as cell-based. The note with it: CHO cell line stably expressing human GPR40; intracellular calcium change measured by FLIPR (Fluo3-AM); EC50 from dose-response curve; read-out: EC50 (receptor function modulating action on GPR40). As to the method:
Determination of EC50 of the compound of the present invention against human GPR40
For determination of EC50, CHO cell line that stably expressed human GPR40 was used. Unless otherwise indicated, the CHO cell line was cultured using α-MEM medium (Invitrogen) containing 10% fetal bovine serum (Invitrogen).
The cells cultured to nearly confluent were rinsed with PBS (Invitrogen) on the previous day of the assay, peeled off with 0.05% Trypsin.EDTA solution (Invitrogen) and recovered by centrifugation. The number of the obtained cells was counted, and the cells were diluted such that 3×10^5 cells were contained per 1 mL of the medium, dispensed to a black welled 96-well plate (coster) by 100 μL per well and cultured overnight in a CO2 incubator. Various test compounds were added to the CHO cells thus prepared, and the changes in the intracellular calcium concentration were measured using FLIPR (Molecular Device). The below-mentioned pre-treatment was applied to measure changes in the intracellular calcium concentration by FLIPR.
First, an assay buffer for adding a fluorescence dye Fluo3-AM (DOJIN) to the cells, or for washing the cells immediately before FLIPR assay was prepared. To a solution of HBSS (Invitrogen, 1000 mL) added 1 M HEPES (pH 7.4, DOJIN, 20 mL) (hereinafter HBSS/HEPES solution) was added a solution (10 mL) obtained by dissolving probenecid (Sigma, 710 mg) in 1 N NaOH (5 mL), and adding and mixing an HBSS/HEPES solution (5 mL), and the resulting solution was used as an assay buffer. Next, Fluo3-AM (50 μg) was dissolved in dimethyl sulfoxide (Wako, 21 μL), and an equivalent amount of 20% pluronic acid (Molecular Probes) was added and mixed. The solution was added to the assay buffer (10.6 mL) supplemented with fetal bovine serum (105 μL) to give a fluorescence dye solution. The medium of the CHO cells inoculated to the black welled 96-well plate on the previous day of assay was removed, the fluorescence dye solution was immediately dispensed by 100 μL per well and the cells were cultured in a CO2 incubator for 1 hr to allow intake of the fluorescence dye by the cells. The cells after the culture were washed with the above-mentioned assay buffer and set on FLIPR. The test compound was diluted with dimethylsulfoxide in advance, dispensed to a polypropylene 96-well plate (sample plate) by 2 μL, and cryopreserved at −20° C. To the thawed sample plate was added an assay buffer containing 0.015% CHAPS (DOJIN) by 198 μL, and simultaneously set on FLIPR together with the cell plate. After the aforementioned pre-treatment, changes in the intracellular calcium concentration upon addition of various test compounds was measured by FLIPR. Based on the results, a dose-response curve of each test compound was formed and EC50 was calculated.
(Calcium flux is commonly read through the fluorescence of an indicator in the cells.)

Each structure is given as a SMILES string. Structures can show the parent of a compound that is named as a salt.

T1 sequence (O14842 whole entry): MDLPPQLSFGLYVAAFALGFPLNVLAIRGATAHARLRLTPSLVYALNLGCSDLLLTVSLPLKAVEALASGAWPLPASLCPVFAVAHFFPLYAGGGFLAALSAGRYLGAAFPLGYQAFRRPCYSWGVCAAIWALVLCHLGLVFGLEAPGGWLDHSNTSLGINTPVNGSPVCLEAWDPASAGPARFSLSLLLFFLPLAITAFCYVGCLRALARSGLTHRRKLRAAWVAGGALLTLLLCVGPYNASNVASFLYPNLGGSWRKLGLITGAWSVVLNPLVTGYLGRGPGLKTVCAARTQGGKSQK

`O=C(O)CCc1ccc(OCc2ccc(Cn3c(-c4ccccc4)cc4ccccc43)cc2)cc1` [Example 45, 3-[4-({4-[(2-phenyl-1H-indol-1-yl)methyl]benzyl}oxy)phenyl]propanoic acid]: the EC50 is < 100 nM.

`O=C(O)CCc1ccc(OCc2ccc(Cn3nc(-c4ccc(C(F)(F)F)cc4)cc3CCc3ccccc3)cc2)cc1` [Example 65, 3-(4-{[4-({5-(2-phenylethyl)-3-[4-(trifluoromethyl)phenyl]-1H-pyrazol-1-yl}methyl)benzyl]oxy}phenyl)propanoic acid]: the EC50 was < 1000 nM.

With `O=C(O)CCc1ccc(OCc2cccc(-c3ccc4c(ccn4Cc4ccccc4)c3)c2)cc1` [Example 20, 3-(4-([3-(1-benzyl-1H-indol-5-yl)benzyl]oxy}phenyl)propanoic acid], the EC50 is < 100 nM.

As to `O=C(O)CCc1ccc(OCc2ccccc2-c2csc3ccccc23)cc1` [Example 10, 3-(4-{[2-(1-benzothiophen-3-yl)benzyl]oxy}phenyl)propanoic acid], the EC50 is < 1000 nM.

With `Cc1sc(C)c(-c2cccc(COc3ccc(CCC(=O)O)cc3)c2)c1C` [Example 4, 3-(4-([3-(2,4,5-trimethyl-3-thienyl)benzyl]oxy}phenyl)propanoic acid], the EC50 is < 10 nM.

Take `Cc1cccc(COc2cc(C(C)(C)C)nn2Cc2ccc(COc3ccc(CCC(=O)O)c(F)c3)cc2)n1` [Example 137, 3-(4-{[4-({3-tert-butyl-5-[(6-methylpyridin-2-yl)methoxy]-1H-pyrazol-1-yl}methyl)benzyl]oxy}-2-fluorophenyl)propanoic acid calcium salt]: the EC50 is < 100 nM.

Take `CC1CCc2ccccc2N1c1cccc(COc2ccc(CCC(=O)O)cc2)c1` (centres unmarked) [Example 40, 3-(4-{[3-(2-methyl-3,4-dihydroquinolin-1 (2H)-yl)benzyl]oxy}phenyl)propanoic acid]: the EC50 was < 10 nM.

As for `CC(C)(C)c1cc(-c2ccccc2)n(Cc2ccc(COc3ccc(CCC(=O)O)c(F)c3)cc2)n1` [Example 141, 3-[4-({4-[(3-tert-butyl-5-phenyl-1H-pyrazol-1-yl)methyl]benzyl)oxy)-2-fluorophenyl]propanoic acid], the EC50 was < 100 nM.

Turning to `CCOCCn1c(-c2ccccc2)c(-c2cccc(COc3ccc(CCC(=O)O)c(F)c3)c2)c2ccccc21` [Example 118, 3-[4-({3-[1-(2-ethoxyethyl)-2-phenyl-1H-indol-3-yl]benzyl}oxy)-2-fluorophenyl]propanoic acid], the EC50 was < 100 nM.

On to `O=C(O)CCc1ccc(OCc2cccc(N3CCOC(c4ccccc4)C3)c2)cc1` (centres unmarked) [Example 29, 3-(4-{[3-(2-phenylmorpholin-4-yl)benzyl]oxy}phenyl)propanoic acid], for which the EC50 is < 100 nM.

Take `Cc1cc2ccccc2n1-c1cccc(COc2ccc(CCC(=O)O)cc2)c1` [Example 24, 3-(4-{[3-(2-methyl-1H-indol-1-yl)benzyl]oxy}phenyl)propanoic acid]: the EC50 is < 10 nM.

`O=C(O)CCc1ccc(OCc2ccc(Cn3ccnc3-c3ccccc3)cc2)cc1` [Example 56, 3-[4-([4-[(2-phenyl-1H-imidazol-1-yl)methyl]benzyl]oxy)phenyl]propanoic acid]: the EC50 is < 1000 nM.

Turning to `Cc1cc(-c2ccccc2)n(Cc2ccc(COc3ccc(CCC(=O)O)cc3)cc2)n1` [Example 112, 3-[4-([4-[(3-methyl-5-phenyl-1H-pyrazol-1-yl)methyl]benzyl}oxy)phenyl]propanoic acid], the EC50 is < 100 nM.

For `CC(C)COc1ccc(COc2ccc(CCC(=O)O)cc2)cc1Cn1c(-c2ccccc2)cc2ccccc21` [Example 60, 3-[4-({4-isobutoxy-3-[(2-phenyl-1H-indol-1-yl)methyl]benzyl)oxy)phenyl]propanoic acid], the EC50 was < 100 nM.

On to `CC(C)(C)c1cc(OCc2ccccc2)n(Cc2ccc(COc3ccc(CCC(=O)O)c(F)c3)cc2)n1` [Example 133, 3-{4-[(4-([5-(benzyloxy)-3-tert-butyl-1H-pyrazol-1-yl]methyl)benzyl)oxy]-2-fluorophenyl}propanoic acid calcium salt], for which the EC50 is < 100 nM.

As to `CC(C)(C)c1cc(COc2ccccc2)n(Cc2ccc(COc3ccc(CCC(=O)O)c(F)c3)cc2)n1` [Example 131, 3-{4-[(4-{[3-tert-butyl-5-(phenoxymethyl)-1H-pyrazol-1-yl]methyl}benzyl)oxy]-2-fluorophenyl}propanoic acid calcium salt], the EC50 was < 100 nM.

On to `CC(C)COc1ccc(COc2ccc(CCC(=O)O)cc2)cc1CN1c2ccccc2CCC1C` (centres unmarked) [Example 111, 3-[4-({4-isobutoxy-3-[(2-methyl-3,4-dihydroquinolin-1 (2H)-yl)methyl]benzyl}oxy)phenyl]propanoic acid], for which the EC50 was < 1000 nM.
